Experimental data reported in PubChem BioAssay AID1845196 (Molecular Pharmacology Branch, DTP, NCI, 2023).

Test system: 292921-168-R tumor spheroid viability
Assay: Anticancer human tumor 292921-168-R patient-derived pancreatic carcinoma cell line growth inhibition
Details: spheroids with HUVEC and MSC; for IC50: curve of first compound; for viability, T/C: stronger effect = lower value
How it was run: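 Complex spheroids of malignant cells with endothelial cells and mesenchymal stem cells; agents alone or combined, from near clinical Cmax (or 10 microM if unknown) down in half-log steps, 0.25% DMSO final.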

[1] = second compound 1 µM, first compound 0.0316 µM
[2] = second compound 1 µM, first compound 0.1 µM
[3] = second compound 1 µM, first compound 0.316 µM
[4] = second compound 1 µM, first compound 1 µM
[5] = second compound 1 µM, first compound 3.16 µM
[6] = second compound 1 µM, first compound 10 µM
[7] = second compound 3.16 µM, first compound 0.0316 µM
[8] = second compound 3.16 µM, first compound 0.1 µM
[9] = second compound 3.16 µM, first compound 0.316 µM
[10] = second compound 3.16 µM, first compound 1 µM
[11] = second compound 3.16 µM, first compound 3.16 µM
[12] = second compound 3.16 µM, first compound 10 µM
[13] = second compound 10 µM, first compound 0.0316 µM
[14] = second compound 10 µM, first compound 0.1 µM
[15] = second compound 10 µM, first compound 0.316 µM
[16] = second compound 10 µM, first compound 1 µM
[17] = second compound 10 µM, first compound 3.16 µM
[18] = second compound 10 µM, first compound 10 µM
[19] = second compound 31.6 µM, first compound 0.0316 µM
[20] = second compound 31.6 µM, first compound 0.1 µM
[21] = second compound 31.6 µM, first compound 0.316 µM
[22] = second compound 31.6 µM, first compound 1 µM
[23] = second compound 31.6 µM, first compound 3.16 µM
[24] = second compound 31.6 µM, first compound 10 µM
[25] = second compound 100 µM, first compound 0.0316 µM
[26] = second compound 100 µM, first compound 0.1 µM
[27] = second compound 100 µM, first compound 0.316 µM
[28] = second compound 100 µM, first compound 1 µM
[29] = second compound 100 µM, first compound 3.16 µM
[30] = second compound 100 µM, first compound 10 µM
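Further: spheroids exposed to compounds for 7 days.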

| SMILES | IC50 (second compound 1 µM) [µM] | IC50 (second compound 3.16 µM) [µM] | IC50 (second compound 10 µM) [µM] | IC50 (second compound 31.6 µM) [µM] | IC50 (second compound 100 µM) [µM] | viability, T/C [1] [%] | viability, T/C [2] [%] | viability, T/C [3] [%] | viability, T/C [4] [%] | viability, T/C [5] [%] | viability, T/C [6] [%] | viability, T/C [7] [%] | viability, T/C [8] [%] | viability, T/C [9] [%] | viability, T/C [10] [%] | viability, T/C [11] [%] | viability, T/C [12] [%] | viability, T/C [13] [%] | viability, T/C [14] [%] | viability, T/C [15] [%] | also measured |
| --- | --- | --- | --- | --- | --- | --- | --- | --- | --- | --- | --- | --- | --- | --- | --- | --- | --- | --- | --- | --- | --- |
| CC1COCCN1c1cc(-c2ccnn2C)c2ccnc(-c3ccn[nH]3)c2n1 (stereo not given) + Cn1nnc2c(C(N)=O)ncn2c1=O | < 0.0316 | < 0.0316 | < 0.0316 | < 0.0316 | < 0.0316 | 29 | 15.5 | 13 | 13.1 | 14.6 | 15.8 | 30.4 | 17.8 | 14.5 | 13 | 14.2 | 15.8 | 27.9 | 16.2 | 12.1 | viability, T/C [16]: 12.8%; viability, T/C [17]: 15.2%; viability, T/C [18]: 15.6%; viability, T/C [19]: 24.3%; viability, T/C [20]: 17.9%; viability, T/C [21]: 12.5%; viability, T/C [22]: 12.8%; viability, T/C [23]: 13.9%; viability, T/C [24]: 15.3%; viability, T/C [25]: 16.9%; viability, T/C [26]: 11.8%; viability, T/C [27]: 9.95%; viability, T/C [28]: 11.3%; viability, T/C [29]: 13%; viability, T/C [30]: 14.7% |
| COc1cc(C)[nH]c(=O)c1CN1CCc2c(Cl)cc(C(OC)C3COC3)c(Cl)c2C1=O (stereo not given) + Cn1nnc2c(C(N)=O)ncn2c1=O | > 10 | > 10 | > 10 | > 10 | > 10 | 94.7 | 94.7 | 95.4 | 88.7 | 81.6 | 72.6 | 102 | 100 | 93.6 | 79.8 | 88.2 | 84.5 | 93.4 | 87.4 | 98 | viability, T/C [16]: 80.2%; viability, T/C [17]: 84.4%; viability, T/C [18]: 75.2%; viability, T/C [19]: 91.5%; viability, T/C [20]: 94.2%; viability, T/C [21]: 89.4%; viability, T/C [22]: 85.1%; viability, T/C [23]: 78.5%; viability, T/C [24]: 80.2%; viability, T/C [25]: 89.5%; viability, T/C [26]: 91.1%; viability, T/C [27]: 88.1%; viability, T/C [28]: 78%; viability, T/C [29]: 75.9%; viability, T/C [30]: 82% |
| Cc1cc(C)c(CNC(=O)c2cc(-c3ccc(CN4CCOCC4)cc3)cc3c2cnn3C2CCCC2)c(=O)[nH]1 + Cn1nnc2c(C(N)=O)ncn2c1=O | > 10 | > 10 | > 10 | > 10 | > 10 | 91.6 | 92.7 | 97.4 | 86.6 | 78.7 | 54.3 | 94.2 | 96.6 | 94.9 | 92.4 | 85.2 | 60.4 | 86.8 | 94.4 | 96 | viability, T/C [16]: 92.5%; viability, T/C [17]: 83.7%; viability, T/C [18]: 56.1%; viability, T/C [19]: 88.5%; viability, T/C [20]: 86.4%; viability, T/C [21]: 83.5%; viability, T/C [22]: 92.5%; viability, T/C [23]: 85.7%; viability, T/C [24]: 51.1%; viability, T/C [25]: 83.5%; viability, T/C [26]: 87.2%; viability, T/C [27]: 83.5%; viability, T/C [28]: 77.2%; viability, T/C [29]: 79.1%; viability, T/C [30]: 52.5% |
| [2H]c1nc(C)nc([2H])c1-c1cc(NC[C@@H](C)c2cccc3c(C(=O)NC)ccnc23)ncn1 + Cn1nnc2c(C(N)=O)ncn2c1=O | > 10 | > 10 | > 10 | > 10 | > 10 | 92.5 | 99.7 | 93.5 | 76.6 | 91.5 | 71.8 | 91 | 91.5 | 90.6 | 93.7 | 88.7 | 77.4 | 89.2 | 86.4 | 87.3 | viability, T/C [16]: 93.7%; viability, T/C [17]: 87.4%; viability, T/C [18]: 79.6%; viability, T/C [19]: 86.4%; viability, T/C [20]: 87.1%; viability, T/C [21]: 86.9%; viability, T/C [22]: 86.1%; viability, T/C [23]: 89.4%; viability, T/C [24]: 75.4%; viability, T/C [25]: 81.4%; viability, T/C [26]: 81.5%; viability, T/C [27]: 84.1%; viability, T/C [28]: 81.2%; viability, T/C [29]: 79.1%; viability, T/C [30]: 70.6% |
